# Laboratory results published in patent publication US11866430B2, “Naphthyridinone compounds useful as T cell activators” (priority 2018, dated 2024).
# Like-named read-outs stand apart in the source and are kept apart here.
# Legend:
# [1] = biological target: T1, human DGKα (Homo sapiens (Human), UniProt P23743); experiment: DGKα LIPGLO assay (extruded liposome substrate); format: biochemical
# Procedure: The DGKα and DGKζ reactions were performed using either extruded liposome (DGKα and DGKζ LIPGLO assays) or detergent/lipid micelle substrate (DGKα and DGKζ assays). The reactions were carried out in 50 mM MOPS pH 7.5, 100 mM NaCl, 10 mM MgCl2, 1 μM CaCl2, and 1 mM DTT (assay buffer). The reactions using a detergent/lipid micelle substrate also contained 50 mM octyl B-D-glucopyranoside. […] The lipid substrate concentrations were […], 0.25 mM DAG, and 2.75 mM PC for the extruded liposome reactions.
# (§1) The compound inhibition studies were carried out as follows: 50 nL droplets of each test compound (top concentration 10 mM with 11 point, 3-fold dilution series for each compound) solubilized in DMSO were transferred to wells of a white 1536 well plate (Corning 3725). A 5 mL enzyme/substrate solution at 2× final reaction concentration was prepared by combining 2.5 mL 4× enzyme solution (20 nM DGKα or DGKζ (prepared as described below) in assay buffer) and 2.5 mL of either 4× liposome or 4× detergent/lipid micelle solution (compositions described below) and incubated at room temperature for 10 minutes. Next, 1 μL 2× enzyme/substrate solution was added to wells containing the test compound and reactions were initiated with the addition of 1 μL 300 uM ATP. The reactions were allowed to proceed for 1 hr, after which 2 μL Glo Reagent (Promega V9101) was added and incubated for 40 minutes. Next, 4 μL Kinase Detection Reagent was added and incubated for 30 minutes. Luminescence was recorded using an EnVision microplate reader. […] The compounds were evaluated at 11 concentrations to determine IC50.
# (§2) The PC, DAG, and PS were dissolved in chloroform, combined, and dried in vacuo to a thin film. The lipids were hydrated to 20 mM in 50 mM MOPS pH 7.5, 100 mM NaCl, 5 mM MgCl2, and were freeze-thawed five times. The lipid suspension was extruded through a 100 nm polycarbonate filter eleven times. […] The liposome preparation was stored at 4° C. for as long as four weeks.
# Human DGK-alpha-TVMV-His-pFBgate and human DCK-zeta-transcript variant-2-TVMV-His-pFBgate baculovirus samples were generated using the Bac-to-Bac baculovirus expression system (Invitrogen) according to the manufacturer's protocol. The DNA used for expression of DGK-alpha and DGK-zeta have SEQ ID NOs: 1 and 3, respectively. Baculovirus amplification was achieved using infected Sf9 cells at 1:1500 virus/cell ratios, and grown for 65 hours at 27° C. post-transfection.
# (§3) The expression scale up for each protein was carried out in the Cellbag 50 L WAVE-Bioreactor System 20/50 from GE Healthcare Bioscience. 12 L of 2×10^6 cells/mL Sf9 cells (Expression System, Davis, Calif.) grown in ESF921 insect medium (Expression System) were infected with virus stock at 1:200 virus/cell ratios, and grown for 66-68 hours at 27° C. post-infection. The infected cell culture was harvested by centrifugation at 2000 rpm for 20 min 4° C. in a SORVALL® RC12BP centrifuge. The cell pellets were stored at −70° C. until purification.
# Full length human DGKα and DGKζ, each expressed containing a TVMV-cleavable C-terminal Hexa-His tag sequence (SEQ ID NOs: 2 and 4, respectively) and produced as described above, were purified from Sf) baculovirus-infected insect cell paste. The cells were lysed using nitrogen cavitation method with a nitrogen bomb (Parr Instruments), and the lysates were clarified by centrifugation. […] The three steps column chromatography included nickel affinity resin capture (i.e. HisTrap FF crude, GE Healthcare), followed by size exclusion chromatography (i.e. HiLoad 26/600 Superdex 200 prep grade, GE Healthcare for DGK-alpha, and HiPrep 26/600 Sephacryl S 300_HR, GE Healthcare for DGK-zeta). The third step was ion exchange chromatography, and differed for the two isoforms.
# [2] = system: pre-activated CD4 T cells and Raji cells; experiment: Raji CD4 T Cell IL2 Assay; format: cell-based
# [3] = biological target: T1, human DGKα; experiment: biochemical
# Procedure, shortened: (§4)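 Full-length human DGKα or DGKζ (C-terminal His tag, Sf9-expressed; 20 nM 4× stock) was preincubated 10 min at room temperature with PS/DAG octyl glucoside micelles in MOPS pH 7.5 buffer with MgCl2, CaCl2 and DTT. It was then started with ATP (300 uM addition) and run for 1 hr, with ADP-Glo luminescence read-out.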
# [4] = biological target: T2, human DGKζ (Homo sapiens (Human), UniProt Q13574); experiment: DGKζ assay (detergent/lipid micelle substrate); format: biochemical
# Procedure, shortened: as §4
# [5] = biological target: T2, human DGKζ; experiment: DGKζ LIPGLO assay (extruded liposome substrate); format: biochemical
# Procedure: The DGKα and DGKζ reactions were performed using either extruded liposome (DGKα and DGKζ LIPGLO assays) or detergent/lipid micelle substrate (DGKα and DGKζ assays). The reactions were carried out in 50 mM MOPS pH 7.5, 100 mM NaCl, 10 mM MgCl2, 1 μM CaCl2, and 1 mM DTT (assay buffer). The reactions using a detergent/lipid micelle substrate also contained 50 mM octyl B-D-glucopyranoside.
# as §1, with “A” for “The compound inhibition studies were carried out as follows: 50 nL droplets of each test compound (top concentration 10 mM with 11 point, 3-fold dilution series for each compound) solubilized in DMSO were transferred to wells of a white 1536 well plate (Corning 3725). A”
# as §2
# Baculovirus amplification was achieved using infected Sf9 cells at 1:1500 virus/cell ratios, and grown for 65 hours at 27° C. post-transfection.
# as §3
# The cells were lysed using nitrogen cavitation method with a nitrogen bomb (Parr Instruments), and the lysates were clarified by centrifugation. […] The three steps column chromatography included nickel affinity resin capture (i.e. HisTrap FF crude, GE Healthcare), followed by size exclusion chromatography (i.e. HiLoad 26/600 Superdex 200 prep grade, GE Healthcare for DGK-alpha, and HiPrep 26/600 Sephacryl S 300_HR, GE Healthcare for DGK-zeta). The third step was ion exchange chromatography, and differed for the two isoforms. DGKα was polished using Q-Sepharose anion exchange chromatography (GE Healthcare). DGKζ was polished using SP Sepharose cation exchange chromatography (GE Healthcare). The proteins were delivered at concentrations of ≥2 mg/mL. The formulation buffers were identical for both proteins: 50 mM Hepes, pH 7.2, 500 mM NaCl, 10% v/v glycerol, 1 mM TCEP, and 0.5 mM EDTA.
# [6] = detergent/lipid micelle substrate, read-out: DGKα IC50
# [7] = detergent/lipid micelle substrate, read-out: DGKζ IC50
# [8] = extruded liposome substrate, read-out: DGKζ LIPGLO IC50
# [9] = DGKζ IC50, detergent/lipid micelle substrate
# [10] = DGKζ LIPGLO IC50, extruded liposome substrate
# T2 sequence (Q13574 other isoform, or with tags, fused parts or gaps): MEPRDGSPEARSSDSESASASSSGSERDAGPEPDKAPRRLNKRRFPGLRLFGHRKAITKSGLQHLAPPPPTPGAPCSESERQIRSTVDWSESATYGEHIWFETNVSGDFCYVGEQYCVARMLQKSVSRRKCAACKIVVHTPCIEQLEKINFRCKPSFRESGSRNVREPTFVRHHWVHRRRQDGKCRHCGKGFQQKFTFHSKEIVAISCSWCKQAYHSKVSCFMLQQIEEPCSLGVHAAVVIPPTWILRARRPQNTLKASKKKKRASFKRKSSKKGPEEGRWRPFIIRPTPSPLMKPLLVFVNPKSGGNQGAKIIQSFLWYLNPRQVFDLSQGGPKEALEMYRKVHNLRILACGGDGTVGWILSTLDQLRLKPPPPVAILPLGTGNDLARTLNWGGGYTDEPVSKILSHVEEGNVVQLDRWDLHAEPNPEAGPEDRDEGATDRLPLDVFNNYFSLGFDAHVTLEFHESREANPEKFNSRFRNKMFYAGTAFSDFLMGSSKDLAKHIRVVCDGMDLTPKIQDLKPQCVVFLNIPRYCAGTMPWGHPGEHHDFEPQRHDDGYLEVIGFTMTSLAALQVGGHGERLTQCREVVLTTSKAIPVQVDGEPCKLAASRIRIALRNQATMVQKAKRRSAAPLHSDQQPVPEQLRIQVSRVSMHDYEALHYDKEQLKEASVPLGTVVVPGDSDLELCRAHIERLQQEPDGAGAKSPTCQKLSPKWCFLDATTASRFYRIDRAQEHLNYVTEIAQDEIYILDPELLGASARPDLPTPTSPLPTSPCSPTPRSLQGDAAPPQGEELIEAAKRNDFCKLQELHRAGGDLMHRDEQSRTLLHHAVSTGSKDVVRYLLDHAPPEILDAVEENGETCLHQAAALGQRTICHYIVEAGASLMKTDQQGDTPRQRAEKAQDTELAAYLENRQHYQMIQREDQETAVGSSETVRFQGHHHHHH
# T1 sequence (P23743 other isoform, or with tags, fused parts or gaps): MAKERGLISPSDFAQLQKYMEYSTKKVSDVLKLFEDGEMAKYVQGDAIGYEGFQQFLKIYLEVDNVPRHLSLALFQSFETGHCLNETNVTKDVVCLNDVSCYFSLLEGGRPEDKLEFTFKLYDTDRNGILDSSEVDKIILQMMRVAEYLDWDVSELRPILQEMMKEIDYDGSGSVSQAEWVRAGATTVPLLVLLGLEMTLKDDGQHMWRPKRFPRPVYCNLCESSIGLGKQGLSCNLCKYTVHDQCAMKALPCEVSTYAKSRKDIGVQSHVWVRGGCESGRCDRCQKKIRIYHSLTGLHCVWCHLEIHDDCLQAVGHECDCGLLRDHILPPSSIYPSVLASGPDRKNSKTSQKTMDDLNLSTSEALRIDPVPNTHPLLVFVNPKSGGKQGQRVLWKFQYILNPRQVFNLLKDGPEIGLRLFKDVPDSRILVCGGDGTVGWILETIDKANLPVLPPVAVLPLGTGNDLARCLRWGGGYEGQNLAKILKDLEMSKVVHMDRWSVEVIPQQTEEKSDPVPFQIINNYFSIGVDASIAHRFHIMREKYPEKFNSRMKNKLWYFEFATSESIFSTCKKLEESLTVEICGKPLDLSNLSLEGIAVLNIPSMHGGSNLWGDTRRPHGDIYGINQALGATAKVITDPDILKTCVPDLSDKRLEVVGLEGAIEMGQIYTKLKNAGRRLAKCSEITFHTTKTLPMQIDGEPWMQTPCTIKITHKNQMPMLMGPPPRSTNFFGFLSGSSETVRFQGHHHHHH
SMILES,IC50 [1] [nM],IC50 [2] [nM],"IC50 [3, 6] [nM]","IC50 [4, 7] [nM]","IC50 [5, 8] [nM]","IC50 ([2]; Homo sapiens, Raji) [nM]","IC50 [4, 9] [nM]","IC50 [5, 10] [nM]","IC50 ([3]; DGKα IC50, detergent/lipid micelle substrate) [nM]"
"CCC(c1ccc(F)cc1)N1CCN(c2c(C#N)c(=O)n(C)c3ccc(Br)nc23)CC1 (single isomer, unassigned) [Example 26, 6-bromo-4-{4-[1-(4-fluorophenyl)propyl]piperazin-1-yl}-1-methyl-2-oxo-1,2-dihydro-1,5-naphthyridine-3-carbonitrile]",6700,140,4300,85000,18000,–,–,–,–
"CCC(c1ccc(F)cc1)N1CCN(c2c(C#N)c(=O)n(C)c3ccc(Br)nc23)CC1 (single isomer, unassigned) [Example 27, 6-bromo-4-{4-[1-(4-fluorophenyl)propyl]piperazin-1-yl}-1-methyl-2-oxo-1,2-dihydro-1,5-naphthyridine-3-carbonitrile]",110,57,110,> 240000,> 240000,–,–,–,–
"CCC(c1ccc(F)cc1)N1CCN(c2c([N+](=O)[O-])c(=O)n(C)c3ccc(C#N)nc23)CC1 (single isomer, unassigned) [Example 33, 8-{4-[1-(4-fluorophenyl)propyl]piperazin-1-yl}-5-methyl-7-nitro-6-oxo-5,6-dihydro-1,5-naphthyridine-2-carbonitrile]",1700,–,750,–,–,18,7600,1700,–
"CCC(c1ccc(F)cc1)N1CCN(c2c([N+](=O)[O-])c(=O)n(C)c3ccc(C#N)nc23)CC1 (single isomer, unassigned) [Example 34, 8-{4-[1-(4-fluorophenyl)propyl]piperazin-1-yl}-5-methyl-7-nitro-6-oxo-5,6-dihydro-1,5-naphthyridine-2-carbonitrile]",290,35,180,–,–,–,23000,3400,–
"CC(c1ccc(F)cc1)N1CCN(c2c([N+](=O)[O-])c(=O)n(C)c3ccc(C#N)nc23)CC1 (single isomer, unassigned) [Example 45, 8-(4-(1-(4-fluorophenyl)ethyl)piperazin-1-yl)-5-methyl-7-nitro-6-oxo-5,6-dihydro-1,5-naphthyridine-2-carbonitrile]",390,–,100,36000,6800,62,–,–,–
"Cn1c(=O)c([N+](=O)[O-])c(N2CCN(C(c3ccc(F)cc3)C3CC3)CC2)c2nc(C#N)ccc21 (single isomer, unassigned) [Example 50, 8-(4-(cyclopropyl(4-fluorophenyl)methyl)piperazin-1-yl)-5-methyl-7-nitro-6-oxo-5,6-dihydro-1,5-naphthyridine-2-carbonitrile]",2100,39,990,39000,5700,–,–,–,–
"Cn1c(=O)c([N+](=O)[O-])c(N2CCN(C(c3ccc(F)cc3)C3CC3)CC2)c2nc(C#N)ccc21 (single isomer, unassigned) [Example 51, 8-(4-(cyclopropyl(4-fluorophenyl)methyl)piperazin-1-yl)-5-methyl-7-nitro-6-oxo-5,6-dihydro-1,5-naphthyridine-2-carbonitrile]",330,5.2,–,56000,4700,–,–,–,180
"Cc1cccc(OCc2cncc(C#N)c2)c1C(c1ccc(F)cc1)N1CCN(c2c([N+](=O)[O-])c(=O)n(C)c3ccc(Br)nc23)CC1 (single isomer, unassigned) [Example 90, 5-((2-((4-(6-bromo-1-methyl-3-nitro-2-oxo-1,2-dihydro-1,5-naphthyridin-4-yl)piperazin-1-yl)(4-fluorophenyl)methyl)-3-methylphenoxy)methyl)nicotinonitrile]",> 240000,630,82000,190000,15000,–,–,–,–
